Test results from the NIST ThermoML archive (doi:10.1021/acs.jced.9b00507).

Test: xn = mol fraction of the nth substance listed
Conditions: 100 kPa, Liquid; for viscosity: Concentric cylinders viscometry; for mass density: Vibrating tube method

CCCCCCn1cc[n+](C)c1.O=[N+]([O-])[O-] [1-hexyl-3-methylimidazolium nitrate] + CCCCCCCCCO
Conditions | mass density [kg/m3] | viscosity [mPa·s]
293.15 K, x1 = 0.0819 | 856.1 | 15.74
293.15 K, x1 = 0.1609 | 882.8 | 22.23
293.15 K, x1 = 0.2386 | 908.3 | 30.27
293.15 K, x1 = 0.3483 | 942.9 | 48.53
293.15 K, x1 = 0.4392 | 970.5 | 71.12
293.15 K, x1 = 0.5588 | 1005.4 | 117.49
293.15 K, x1 = 0.6508 | 1031.3 | 177.42
293.15 K, x1 = 0.7394 | 1055.3 | 263.63
293.15 K, x1 = 0.8497 | 1083.9 | 413.05
293.15 K, x1 = 0.9456 | 1107.6 | 630.96
293.15 K, x1 = 1 | 1120.3 | 804.17
298.15 K, x1 = 0.0819 | 852.5 | 12.59
298.15 K, x1 = 0.1609 | 879.2 | 16.67
298.15 K, x1 = 0.2386 | 904.7 | 21.93
298.15 K, x1 = 0.3483 | 939.3 | 33.81
298.15 K, x1 = 0.4392 | 967 | 48.19
298.15 K, x1 = 0.5588 | 1001.9 | 79.43
298.15 K, x1 = 0.6508 | 1027.9 | 118.3
298.15 K, x1 = 0.7394 | 1052 | 175.79
298.15 K, x1 = 0.8497 | 1080.7 | 288.4
298.15 K, x1 = 0.9456 | 1104.5 | 439.6
298.15 K, x1 = 1 | 1117.5 | 545.25
303.15 K, x1 = 0.0819 | 849 | 10.19
303.15 K, x1 = 0.1609 | 875.5 | 13.18
303.15 K, x1 = 0.2386 | 901 | 16.79
303.15 K, x1 = 0.3483 | 935.6 | 24.27
303.15 K, x1 = 0.4392 | 963.3 | 33.11
303.15 K, x1 = 0.5588 | 998.3 | 51.88
303.15 K, x1 = 0.6508 | 1024.3 | 76.03
303.15 K, x1 = 0.7394 | 1048.4 | 113.24
303.15 K, x1 = 0.8497 | 1077.3 | 188.34
303.15 K, x1 = 0.9456 | 1101.2 | 294.59
303.15 K, x1 = 1 | 1114.3 | 369.14
308.15 K, x1 = 0.0819 | 845.5 | 8.41
308.15 K, x1 = 0.1609 | 872 | 10.05
308.15 K, x1 = 0.2386 | 897.4 | 12.25
308.15 K, x1 = 0.3483 | 932 | 16.94
308.15 K, x1 = 0.4392 | 959.7 | 22.08
308.15 K, x1 = 0.5588 | 994.7 | 32.81
308.15 K, x1 = 0.6508 | 1020.6 | 45.71
308.15 K, x1 = 0.7394 | 1044.8 | 68.08
308.15 K, x1 = 0.8497 | 1073.7 | 116.37
308.15 K, x1 = 0.9456 | 1097.8 | 192.31
308.15 K, x1 = 1 | 1111.1 | 257.59
313.15 K, x1 = 0.0819 | 841.9 | 6.7
313.15 K, x1 = 0.1609 | 868.3 | 7.87
313.15 K, x1 = 0.2386 | 893.7 | 9.06
313.15 K, x1 = 0.3483 | 928.3 | 11.04
313.15 K, x1 = 0.4392 | 956 | 13.27
313.15 K, x1 = 0.5588 | 991 | 18.92
313.15 K, x1 = 0.6508 | 1017 | 26.73
313.15 K, x1 = 0.7394 | 1041.2 | 41.3
313.15 K, x1 = 0.8497 | 1070.2 | 73.71
313.15 K, x1 = 0.9456 | 1094.4 | 136.37
313.15 K, x1 = 1 | 1107.8 | 185.67
318.15 K, x1 = 0.0819 | 838.3 | 5.28
318.15 K, x1 = 0.1609 | 864.7 | 5.78
318.15 K, x1 = 0.2386 | 890 | 6.35
318.15 K, x1 = 0.3483 | 924.6 | 7.36
318.15 K, x1 = 0.4392 | 952.3 | 8.61
318.15 K, x1 = 0.5588 | 987.4 | 11.46
318.15 K, x1 = 0.6508 | 1013.5 | 15.85
318.15 K, x1 = 0.7394 | 1037.8 | 25.39
318.15 K, x1 = 0.8497 | 1066.9 | 53.43
318.15 K, x1 = 0.9456 | 1091.2 | 101.71
318.15 K, x1 = 1 | 1104.7 | 140.18
323.15 K, x1 = 0.0819 | 834.7 | 4.15
323.15 K, x1 = 0.1609 | 861.1 | 4.25
323.15 K, x1 = 0.2386 | 886.4 | 4.41
323.15 K, x1 = 0.3483 | 921 | 4.84
323.15 K, x1 = 0.4392 | 948.6 | 5.33
323.15 K, x1 = 0.5588 | 983.8 | 6.84
323.15 K, x1 = 0.6508 | 1009.9 | 9.63
323.15 K, x1 = 0.7394 | 1034.3 | 16.2
323.15 K, x1 = 0.8497 | 1063.5 | 37.68
323.15 K, x1 = 0.9456 | 1088 | 78.73
323.15 K, x1 = 1 | 1101.6 | 110.94
